Like-named read-outs stand apart in the source and are kept apart here.
Legend:
Assay type in all cases: in vivo
[1] = system: Digitaria sanguinalis; experiment: Greenhouse post-emergence (POST) herbicidal test on DIGSA; details: for inhibition at 2 g/ha / inhibition at 4 g/ha / inhibition at 1 g/ha / inhibition at 8 g/ha: Digitaria sanguinalis, post-emergence; for inhibition at 2 g/ha: use rate 2 gai/ha; for inhibition at 4 g/ha: use rate 4 gai/ha; for inhibition at 1 g/ha: use rate 1 gai/ha
How it was run: (§1)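 POST spray at 3–15 cm plant height, BBCH stage as given; loamy sand, ~3.0% humus; 10-25° C / 20-35° C per species; 0–100 damage scale; read 20 DAT.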

[2] = system: Abutilon theophrasti; experiment: Greenhouse pre-emergence (PRE) herbicidal test on ABUTH; details: Abutilon theophrasti, pre-emergence; for inhibition at 2 g/ha: use rate 2 gai/ha; for inhibition at 8 g/ha: use rate 8 gai/ha
How it was run: (§2)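 Visual 0–100 rating at 20 days after treatment; 0 = normal growth, 100 = no emergence or complete kill of shoots. Pre-emergent application to seeded pots of loamy sand (~3.0% humus), species-dependent temperature 10-25° C or 20-35° C.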

[3] = system: Euphorbia heterophylla; experiment: Greenhouse pre-emergence (PRE) herbicidal test on EPHHL; details: for inhibition at 8 g/ha: use rate 8 gai/ha
How it was run: as §2

[4] = system: Brachiaria decumbens; experiment: Greenhouse pre-emergence (PRE) herbicidal test on BRADC; details: Urochloa decumbens, PRE, BRADC, use rate 1 gai/ha
Description: (§3) The culture containers used were plastic pots containing loamy sand with approximately 3.0% of humus as substrate. The seeds of the test plants were sown separately for each species.
(§4) For the pre-emergence treatment, the active compounds, suspended or emulsified in water, were applied directly after sowing by means of finely distributing nozzles. The containers were irrigated gently to promote germination and growth and subsequently covered with transparent plastic hoods until the plants had rooted. This cover caused uniform germination of the test plants unless this was adversely affected by the active compounds.
(§5) Depending on the species, the plants were kept at 10-25° C. and 20-35° C., respectively.
(§6) The test period extended over 2 to 4 weeks. During this time, the plants were tended and their response to the individual treatments was evaluated.
(§7) Evaluation was carried out using a scale from 0 to 100. 100 means no emergence of the plants, or complete destruction of at least the above-ground parts, and 0 means no damage or normal course of growth. A good herbicidal activity is given at values of at least 70, and very good herbicidal activity is given at values of at least 85.
(§8) If not stated differently, the respective components A and B, and if appropriate, C were formulated as a 5% by weight strength emulsion concentrate and, with addition of the amount of solvent system, introduced into the spray liquor used for applying the active compound.
(§9) As indicated application was either post emergent (POST) at the respective growth stage (GS) of the weed (BBCH code), or pre-emergent (PRE).
(§10) Assessment was 20 days after treatment (DAT).

[5] = system: Echinochloa crus-galli; experiment: Greenhouse post-emergence (POST) herbicidal test on ECHCG; details: Echinochloa crus-galli, post-emergence; for inhibition at 1 g/ha: use rate 1 gai/ha; for inhibition at 2 g/ha: use rate 2 gai/ha
How it was run: as §1

[6] = system: Commelina benghalensis; experiment: Greenhouse pre-emergence (PRE) herbicidal test on COMBE; details: Commelina benghalensis, pre-emergence
How it was run: as §2

[7] = system: Amaranthus retroflexus; experiment: Greenhouse post-emergence (POST) herbicidal test on AMARE; details: Amaranthus retroflexus, post-emergence, POST, AMARE
How it was run: as §1

[8] = system: Galium aparine; experiment: Greenhouse pre-emergence (PRE) herbicidal test on GALAP; details: Galium aparine, pre-emergence; PRE; GALAP; use rate 1 gai/ha
Description: as §3, §4, §5, §6, §7, §8, §9, §10

[9] = system: Euphorbia heterophylla; experiment: Greenhouse post-emergence (POST) herbicidal test on EPHHL; details: Euphorbia heterophylla, post-emergence, POST, EPHHL; for inhibition at 2 g/ha: use rate 2 gai/ha
How it was run: as §1

[10] = system: Geranium pusillum; experiment: Greenhouse pre-emergence (PRE) herbicidal test on GERPU; details: Geranium pusillum, pre-emergence; for inhibition at 4 g/ha: use rate 4 gai/ha
How it was run: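 Damage was rated visually on a 0 to 100 scale at 20 days after treatment, where 0 meant normal growth and 100 meant no emergence or complete kill of above-ground parts. Compounds were applied in water to freshly sown loamy-sand pots.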

[11] = system: Ambrosia artemisiifolia; experiment: Greenhouse pre-emergence (PRE) herbicidal test on AMBEL; details: Ambrosia artemisiifolia, pre-emergence; for inhibition at 8 g/ha: use rate 8 gai/ha
[12] = system: Abutilon theophrasti; experiment: Greenhouse post-emergence (POST) herbicidal test on ABUTH; details: Abutilon theophrasti, post-emergence, POST, ABUTH; for inhibition at 2 g/ha: use rate 2 gai/ha
How it was run: as §1

[13] = system: Amaranthus retroflexus; experiment: Greenhouse pre-emergence (PRE) herbicidal test on AMARE; details: Amaranthus retroflexus, pre-emergence; AMARE PRE, use rate 2 gai/ha; read-out: % activity
How it was run: as §2

[14] = DIGSA POST, read-out: % activity
[15] = POST, DIGSA, read-out: % activity
[16] = POST, ECHCG, read-out: % activity
[17] = 480 h, 20 DAT, read-out: % activity
[18] = 480 h, use rate 4 gai/ha, 20 DAT
[19] = ABUTH PRE, read-out: % activity
[20] = 480 h, use rate 8 gai/ha, 20 DAT, read-out: solo application % activity
[21] = 480 h, 20 DAT, read-out: solo application % activity

COc1c(F)cc(F)c(F)c1Nc1nc(N)nc(C(C)(C)F)n1 [Compound I-1]
inhibition at 2 g/ha ([1]; 480 h, POST, DIGSA, 20 DAT, read-out: % activity): 0% | inhibition at 4 g/ha ([1]; 480 h, POST, DIGSA, 20 DAT): 30% | inhibition at 1 g/ha [1, 14]: 5% | inhibition at 4 g/ha ([1]; DIGSA POST): 25% | inhibition at 1 g/ha [1, 15]: 0% | inhibition at 2 g/ha [1, 15]: 10% | inhibition at 2 g/ha ([2]; 480 h, PRE, ABUTH, 20 DAT, read-out: % activity): 65% | inhibition at 4 g/ha ([2]; 480 h, PRE, ABUTH, use rate 4 gai/ha, 20 DAT): 75% | inhibition at 1 g/ha ([2]; ABUTH PRE, use rate 1 gai/ha, read-out: % activity): 75% | % activity ([3]; EPHHL PRE, use rate 4 gai/ha): 20% | inhibition at 16 g/ha ([3]; Euphorbia heterophylla, pre-emergence, 480 h, PRE, EPHHL, use rate 16 gai/ha, 20 DAT): 60% | inhibition at 4 g/ha ([3]; Euphorbia heterophylla, pre-emergence, EPHHL PRE, use rate 4 gai/ha): 25% | inhibition at 1 g/ha ([3]; Euphorbia heterophylla, pre-emergence, PRE, EPPHL, use rate 1 gai/ha, read-out: % activity): 0% | inhibition at 4 g/ha ([3]; Euphorbia heterophylla, pre-emergence, PRE, EPPHL, use rate 4 gai/ha): 70% | inhibition at 1 g/ha [4]: 0% | inhibition at 4 g/ha ([5]; 480 h, POST, ECHCG, use rate 4 gai/ha, 20 DAT): 0% | inhibition at 1 g/ha ([5]; ECHCG POST, read-out: % activity): 30% | inhibition at 1 g/ha [5, 16]: 10% | inhibition at 2 g/ha [5, 16]: 10% | inhibition at 1 g/ha ([6]; COMBE PRE, use rate 1 gai/ha): 35% | inhibition at 4 g/ha ([6]; COMBE PRE, use rate 4 gai/ha): 0% | inhibition at 1 g/ha ([7]; use rate 1 gai/ha): 50% | inhibition at 1 g/ha [8]: 0% | inhibition at 2 g/ha [9, 17]: 50% | inhibition at 4 g/ha [9, 18]: 60% | inhibition at 2 g/ha ([9]; read-out: % activity): 40% | inhibition at 4 g/ha ([10]; 480 h, PRE, GERPU, 20 DAT): 50% | inhibition at 1 g/ha ([10]; GERPU PRE, use rate 1 gai/ha): 0% | inhibition at 4 g/ha ([10]; GERPU PRE): 20% | inhibition at 4 g/ha ([10]; PRE, GERPU): 10% | inhibition at 1 g/ha ([11]; 480 h, PRE, AMBEL, use rate 1 gai/ha, 20 DAT): 10% | inhibition at 2 g/ha [12, 17]: 30% | inhibition at 4 g/ha [12, 18]: 50% | inhibition at 1 g/ha ([12]; use rate 1 gai/ha): 10% | inhibition at 2 g/ha ([12]; read-out: % activity): 10%

COc1c(Cl)c(F)c(F)c(F)c1Nc1nc(N)nc(C(C)(C)F)n1 [Compound I-4, N4-(5-Chloro-2,3,4-trifluoro-6-methoxy-phenyl)-6-(1-fluoro-1-methyl-ethyl)-1,3,5-triazine-2,4-diamine]
% activity ([1]; DIGSA POST, use rate 8 gai/ha): 35% | inhibition at 2 g/ha ([1]; 480 h, POST, DIGSA, 20 DAT, read-out: solo application % activity): 0% | inhibition at 8 g/ha ([1]; 480 h, POST, DIGSA, use rate 8 gai/ha, 20 DAT, read-out: solo application % activity): 0% | inhibition at 2 g/ha [1, 14]: 10% | inhibition at 8 g/ha ([1]; DIGSA POST, use rate 8 gai/ha, read-out: % activity): 25% | inhibition at 8 g/ha ([2]; 240 h, PRE, 10 DAT, read-out: % activity): 50% | inhibition at 16 g/ha ([2]; 240 h, PRE, use rate 16 gai/ha, 10 DAT): 70% | pest or weed control at 2 g/ha ([2]; 480 h, PRE, ABUTH, I-4 solo 2 gai/ha, 20 DAT): 35% | inhibition at 8 g/ha ([2]; 480 h, PRE, ABUTH, 20 DAT, read-out: solo application % activity): 90% | inhibition at 2 g/ha [2, 19]: 10% | inhibition at 8 g/ha [2, 19]: 80% | pest or weed control at 8 g/ha ([3]; Euphorbia heterophylla, pre-emergence, 480 h, PRE, EPHHL, I-4 solo 8 gai/ha, 20 DAT): 5% | inhibition at 2 g/ha ([3]; Euphorbia heterophylla, pre-emergence, 480 h, PRE, EPHHL, use rate 2 gai/ha, 20 DAT, read-out: solo application % activity): 0% | inhibition at 8 g/ha ([3]; Euphorbia heterophylla, pre-emergence, 480 h, PRE, EPHHL, 20 DAT, read-out: solo application % activity): 10% | inhibition at 8 g/ha ([3]; Euphorbia heterophylla, pre-emergence, EPHHL PRE, read-out: % activity): 40% | inhibition at 2 g/ha ([5]; 480 h, POST, ECHCG, 20 DAT, read-out: solo application % activity): 0% | inhibition at 8 g/ha ([5]; 480 h, POST, ECHCG, use rate 8 gai/ha, 20 DAT, read-out: solo application % activity): 5% | inhibition at 2 g/ha [13]: 70% | pest or weed control at 2 g/ha ([6]; 480 h, PRE, COMBE, I-4 solo 2 gai/ha, 20 DAT, read-out: % activity): 10% | inhibition at 8 g/ha ([6]; 480 h, PRE, COMBE, use rate 8 gai/ha, 20 DAT, read-out: solo application % activity): 10% | inhibition at 2 g/ha ([7]; 480 h, use rate 2 gai/ha, 20 DAT, read-out: solo application % activity): 80% | inhibition at 8 g/ha [7, 20]: 75% | inhibition at 2 g/ha [9, 21]: 30% | inhibition at 8 g/ha [9, 20]: 35% | inhibition at 2 g/ha ([10]; 480 h, PRE, use rate 2 gai/ha, 20 DAT): 10% | inhibition at 4 g/ha ([11]; 240 h, PRE, use rate 4 gai/ha, 10 DAT): 10% | pest or weed control at 8 g/ha ([11]; 480 h, PRE, AMBEL, I-4 solo 8 gai/ha, 20 DAT): 35% | inhibition at 2 g/ha ([11]; 480 h, PRE, AMBEL, use rate 2 gai/ha, 20 DAT, read-out: solo application % activity): 0% | inhibition at 8 g/ha ([11]; 480 h, PRE, AMBEL, 20 DAT, read-out: solo application % activity): 30% | inhibition at 8 g/ha ([11]; AMBEL PRE, read-out: % activity): 15% | pest or weed control at 2 g/ha ([12]; 480 h, I-4 solo 2 gai/ha, 20 DAT): 20% | inhibition at 2 g/ha [12, 21]: 10% | inhibition at 8 g/ha [12, 20]: 10%
